According to patent publication US10716771B2, “Pharmaceutical composition for preventing or treating immune diseases or inflammatory diseases, containing biguanide derivative compound as active ingredient” (THE CATHOLIC UNIVERSITY OF KOREA INDUSTRY-ACADEMIC …, priority 2013, dated 2020):

Columns and labels:
IL-17 = IL-17 generation in mouse spleen cells under Th17 differentiation, sandwich ELISA; assay type: cell-based; settings: mouse spleen cells under Th17 stimulating condition, 3 days
Method: In order to verify whether the biguanide derivative compound of the present invention has the activity of […] generation of IL-17 as an inflammatory cytokine in a Th17 cell which is a pathogenic cell, an expression degree of IL-17 was measured by an ELISA assay.
(§1) Spleen cells were obtained from a normal mouse of C57BL/6 (Orient Company, Korea). That is, the tissue of the spleen extracted from the mouse was finely grinded by using a teasing slide and then erythrocytes in the spleen were removed by an erythrocyte hemolysis solution. Thereafter, a PBS buffer solution was added, centrifuged, and washed to obtain spleen cells.
1×10^6 of the spleen cells from the mouse prepared through Example <2-1> were divided in a 24-well plate coated with […] of anti-CD3 antibody and simultaneously treated with 1 μg/mL of anti-CD28 antibody, 2 ng/ml of TGF-β, 20 ng/ml of IL-6 20 ng/ml, 2 μg/ml of anti-IL-4, and 2 μg/ml of anti-IFNr as a condition capable of stimulating Th17 cells, and then the cells were incubated for 3 days to induce the differentiation of the Th17 cells. […]
In order to measure an amount of the generated IL-17 cytokine, a supernatant of the incubated cells was collected and the IL-17 expression degree was examined by using a sandwich ELISA. […] Thereafter, a PNPP/DEA solution was added and colored, and then the absorbance was measured at a wavelength of 405 nm.

TNF-α = TNF-α generation in LPS-treated mouse spleen cells, ELISA; assay type: cell-based; settings: 2, 20, 200 μM with LPS 100 ng/ml, 3 days; compared with only LPS
Method: as §1
Since it is known that Metformin used as the diabetes therapeutic agent currently on the market has a slight effect of blocking TNF-α as the inflammatory cytokine, in order to verify whether the biguanide derivative compound of the present invention has activity of reducing the generation of TNF-α, the expression degree of TNF-α was measured by an ELISA assay. […]
In order to measure an amount of the generated TNF-α cytokine, a supernatant of the incubated cells was collected and the TNF-α generation degree was examined by using an ELISA. […] Thereafter, a PNPP/DEA solution was added and colored, and then the absorbance was measured at a wavelength of 405 nm.

What does the source list for CC(C)NC(=N)NC(=N)N [SD-000196, 1-isopropylbiguanide]?
IL-17 generated amount, dependence on treatment concentration (IL-17; 2 μM, 20 μM and 200 μM): reduced depending on the treatment concentration; generated amount of IL-17 (IL-17; 200 μM, sandwich ELISA): completely suppressed

With NC(N)=N/C(N)=N/c1cccc(F)c1 [SD-000216, 1-(3-fluorophenyl)biguanide] as the molecule, how does the “generated amount of TNF-α” value (TNF-α) read?
Its value is “very significantly reduced”.

N=C(N)NC(=N)Nc1ccc(F)cc1F [SD-000217, 1-(2,4-difluorophenyl)biguanide] was tested. Which “generated amount of TNF-α” value (TNF-α) did it give?
The value was “very significantly reduced”.
